How the values were obtained:
TGF-β signaling = experiment: Bioluminescence in SBE-luc reporter mice; format: in vivo, mouse; details: brain/CNS bioluminescence
Procedure: The most promising compounds out of these screens were tested for their neuroprotective potential in B103 rat neuroblastoma cells and primary mouse neurons derived from E16 forebrains. Compounds were also tested for their capacity to reduce varicosities and tortuosity in primary mouse neurons. Accordingly, novel neuroprotectant small molecules have been identified that are as potent or better than TGF-β. Importantly, they fulfilled the critical neuroprotective properties in neuronal cell lines and primary hippocampal mouse neurons. • Compounds based on the 11H core: The present compositions and methods include salts of the active compounds and formulations, in particular pharmaceutically acceptable compositions for administration to an animal or human subject and containing active compounds. 129 analogs or derivatives of 11H were screened by a cell-based assay for their ability to increase TGF-β activity, i.e. to act as a TGF agonist. In particular, one compound (a) designated as SRI-011381 (381) was identified as especially advantageous, although active derivatives thereof are contemplated and have been identified. • Effects of TGF-β analogs in vitro: Some of the small-molecule TGF-β agonist compounds were tested for neuroprotection activity and toxicity in vitro (cell culture). In addition, the mechanism of action of the agonists was explored using cells with different genetic backgrounds with respect to protein of the […] signaling pathway. • Animal studies: Transgenic mice harboring the SBE-luc reporter gene were generated and used to test the derivatives of compound 11H in vivo. These “reporter mice” mice express SBE-luc (i.e., “the transgene”) in all cells of the body. Intraperitoneal injection of luciferin into SBE-luc-expressing mice produces bioluminescence generated by luciferase and photons penetrating the skull can be imaged using sensitive camera systems.
SBE-luciferase transgenic mice: Two-month old SBE-luciferase transgenic mice receive different concentrations of a test compound either s.q., ip., or orally by gavage. […] Following administration of the test or control compounds, mice are injected with luciferin ip. At, for example, 2, 8, and 16 hours following injection of luciferin, the mice are imaged to detect bioluminescence as described above. Brains may be harvested 16 hours following test compound injection, and may be divided sagittally. For example, one hemi-brain can be homogenized in luciferase assay buffer for measurement of reporter gene activation, while the other hemi-brain can be frozen at −70° C. for future study, including sectioning into individual brain regions

hippocampal neurons = experiment: Aβ-induced neuritic dystrophy in primary hippocampal neurons; format: cell-based, mouse; details: for average numbers of dystrophic neurites per neuron: 21-22 DIV, 5 μM Aβ, 48 h
Procedure: Primary hippocampal neurons isolated from E16 CF1 embryos were aged for 6-7 days or 21-22 days, then challenged with 5 μM oligomeric Aβ in the presence or absence of compounds, and assayed for neurotoxicity (cell survival as above) or neuritic dystrophy, respectively. For quantification of neuritic dystrophy, fixed cells were immune-stained with a MAP-2 monoclonal antibody to label dendrites.
Primary hippocampal neurons were isolated from E16 CF1 embryos. Twenty-four-well culture plates were coated with 10 μg/ml poly-L-lysine. Cells were seeded overnight at a density of 30,000 cells/well in DMEM/F-12 medium supplemented with 10% FBS and penicillin/streptomycin, and subsequently maintained in Neurobasal medium containing 2% B27 supplement. Cells were aged for 6-7 days or 21-22 days, then challenged with 5 μM Aβ in the presence or absence of compounds, and assayed for neurotoxicity or neuritic dystrophy, respectively. Cells were treated for 72 h for neurotoxicity assay and 48 h for neuritic dystrophy assay. At the end of treatment, an equal volume of 4% PFA was added, plates incubated at room temperature for 15 min and then washed three times with DPBS. Cells were kept in the last wash of DPBS at 4° C. until being counted or stained.
For quantification of neuritic dystrophy, fixed cells were immunostained with a MAP-2 monoclonal antibody (Sigma-Aldrich). […] MAP2 positive dendrites were observed under an inverted fluorescence microscope (Olympus). […] To quantify neurite curvature, an established method was modified for assessment of neurite curvature. Neurite tracks were digitized and approximated by a series of connected line segments using ImageJ (NIH). The angle of each segment was determined using a Sigmaplot macro, and the results were averaged to give the ‘mean differential curvature’. This parameter reflects the degree of neurite curvature with an increasing value indicating increased curvature. Neurite counting and quantification were performed in randomly selected fields (5 fields/well). All quantitative assessments were done by investigators blinded with respect to treatment conditions.

B103 neuroblastoma cells = experiment: B103 live/dead cell assay with Aβ; format: cell-based, rat; details: Aβ 24 h; added 2 h before Aβ
Procedure: SRI-11381 is neuroprotective in vitro: To determine if the TGF-β-inducing capacity of SRI-011381 would translate into biologically beneficial effects, its neuroprotective potential was tested in B103 rat neuroblastoma cells and primary mouse neurons derived from E16 forebrains. B103 neuroblastoma cells were cultured in 24-well plates and exposed to an oligomeric preparation of Aβ together with compounds or recombinant TGF-β.
FIGS. 3A-3H illustrate that SRI-011381 protects cultured neurons from Aβ toxicity. B103 neuroblastoma cells were incubated with Aβ for 24 h. The compounds and TGF-β were added 2 h before Aβ. Following incubations live and dead cells were assessed with calcein-acetoxymethylester (CAM) and SYTOX Orange (Invitrogen), respectively.
B103 neuroblastoma cells: B103 neuroblastoma cells were cultured in Dulbecco's modified Eagle's medium containing 10% fetal calf serum and 1% v/v penicillin/streptomycin (Invitrogen) in a 5% CO2: 95% air atmosphere. 10^4 cells/well were seeded onto 24 well plates and cultured for 24 h before Aβ was added. The compounds and TGF-β were added 2 h before Aβ. Following a 24 h incubation with Aβ, live and dead cells were assessed using calcein-acetoxymethylester (CAM) and SYTOX Orange (Invitrogen), respectively. AM is a membrane-permeable, fluorogenic esterase substrate that is hydrolyzed intracellularly to a green fluorescent product (calcein) in live cells. SYTOX Orange is a high-affinity nucleic acid stain that easily penetrates cells with compromised plasma membranes and yet will not cross the membranes of live cells. After incubation with SYTOX Orange, the nucleic acids of dead cells fluoresce bright orange. […] Five fields were randomly selected from each well and the cell numbers were analyzed by ImageJ (NIH) in a blinded fashion.

| Molecule | activation of TGF-β signaling in SBE-luc reporter mice (TGF-β signaling) | average numbers of dystrophic neurites per neuron (hippocampal neurons) | Aβ-induced cell death (B103 neuroblastoma cells) | Aβ-induced increase in neurite curvature (mean differential curvature) (hippocampal neurons) |
| --- | --- | --- | --- | --- |
| C/C(=C\c1ccccc1)CN(CC1CCNCC1)C(=O)NC1=CCC=CC1 [Compound 11H, reference compound] | penetrate into the CNS and activate TGF-β signaling | markedly reduced | – | – |
| TGF-β1: Transforming Growth Factor-β, recombinant cytokine used as comparator | – | markedly reduced | inhibit Aβ-induced cell death | prevented |
